Structures can show the parent of a compound that is named as a salt.
tested on: Dissociated VM cells; assay: Neuroprotection Assay (NMDA-induced neuroexcitotoxic injury, high affinity 3H-dopamine uptake); type: cell-based, Sprague-Dawley rat; conditions: embryonic day 15 rat ventral mesencephalic cultures, NMDA (100-400 µM) for 20 hours
Source text: The neuroprotective activity of the compounds of this invention may be assayed using rat embryo ventral mesencephalic cells in culture which are subsequently exposed to the glutamate receptor agonist NMDA. This assay is described in detail in the example section.
The ventral mesencephalic region was dissected out of embryonic day 15 Sprague-Dawley rat embryos (Harlan), dissociated into single cell suspension by a combination of trypsinization and trituration (Costantini et al., Neurobiol Dis., pp. 97-106 (1998). Dissociated VM cells were plated into poly-L-ornithine-coated 96-well plates at a density of 85,000 cells/well in 100 uL of DMEM supplemented with 18% heat-inactivated horse serum, 0.24% glucose, 2 mM glutamine and 50 u/ml pernicillin/streptomycin and incubated in a 5% CO2 incubator. After one day in culture (DIV1), the medium was replaced with 100 µL of a defined medium (DMEM supplemented with 1x N2 cocktail (Gibco-BRL), 0.12% glucose, 2 mM glutamine, and 50 units/ml penicillin/streptomycin) containing DMSO or various concentrations of the compounds of this invention. On DIV5, neuroexcitotoxic injury was induced by the addition of various concentrations of the glutamate receptor agonist NMDA (100-400 µM). Cultures were incubated with the neurotoxin for 20 hours and the effects of neurophilin compounds were assessed using high affinity ^3H-dopamine uptake according to a procedure published by Park and Mytilineou [Brain Res., 599, pp. 83-97 (1992)].

Question: How did the EC50 turn out when `CCN1CCCC[C@H]1C(=O)N1CCN(CCc2ccccc2)CC1` [Compound 74, ((2S)-1-Ethylpiperidin-2-yl)-(4-phenethylpiperazin-1-yl)-methanone dihydrochloride] was run?
Answer: Its EC50 is over 500 nM.

Question: `CCN1CCCC[C@H]1C(=O)N1CCN(Cc2ccc(OC)cc2)CC1` [Compound 75, ((2S)-1-Ethylpiperidin-2-yl)-[4-(4-methoxybenzyl)-piperazin-1-yl]-methanone] was tested. Which EC50 did it give?
Answer: Its EC50 is over 500 nM.

Question: Which EC50 does the source give for `CCN1CCCC[C@H]1C(=O)N1CCN(Cc2ccc(F)cc2)CC1` [Compound 76, ((2S)-1-Ethylpiperidin-2-yl)-[4-(4-fluorobenzyl)-piperazin-1-yl] methanone] here?
Answer: Its EC50 is 100 to 500 nM.

Question: For `CCN1CCCC[C@H]1C(=O)N1CCN(Cc2ccc(F)c(F)c2)CC1` [Compound 77, [4-(3,4-Difluorobenzyl)-piperazin-1-yl]-((2S) -1-ethylpiperidin-2-yl)-methanone], which EC50 is on record?
Answer: Its EC50 is 100 to 500 nM.

Question: `CCN1CCCC[C@H]1C(=O)N1CCN(C(=O)c2ccccc2)CC1` [Compound 78, [4-((2S)-1-Ethylpiperidine-2-carbonyl)-piperazin-1-yl]-phenyl methanone] was tested. Which EC50 did it give?
Answer: The EC50 was over 500 nM.

Question: Which EC50 does the source give for `CCN1CCCC[C@H]1C(=O)N1CCN(C(=O)c2ccc(F)cc2)CC1` [Compound 79, ((2S)-1-Ethylpiperidin-2-yl)-[4-(4-fluorobenzoyl)-piperazin-1-yl] methanone hydrochloride] here?
Answer: The EC50 was 100 to 500 nM.

Question: Which EC50 does the source give for `CCN1CCCC[C@H]1C(=O)N1CCN(S(=O)(=O)c2ccccc2)CC1` [Compound 80, (4-Benzenesulfonylpiperazin-1-yl)-((2S)-1-ethylpiperidin-2-yl)-methanone hydrochloride] here?
Answer: Its EC50 is over 500 nM.

Question: How did the EC50 turn out when `CCN1CCCC[C@H]1C(=O)N1CCN(S(=O)(=O)c2ccc(F)cc2)CC1` [Compound 81, ((2S)-1-Ethylpiperidin-2-yl)-[4-(4-fluorobenzenesulfonyl)-piperazin-1-yl]-methanone hydrochloride] was run?
Answer: The EC50 was over 500 nM.

Question: Which EC50 does the source give for `CCN1CCCC[C@H]1C(=O)N1CCC(=Cc2ccc(F)cc2)CC1` [Compound 84, ((2S)-1-Ethylpiperidin-2-yl)-[4-(4-fluorobenzylidene)piperidin-1-yl]-methanone hydrochloride] here?
Answer: Its EC50 is under 100 nM.

Question: How did the EC50 turn out when `O=C([C@@H]1CCCN1Cc1ccccc1)N1CCC(=Cc2ccc(F)cc2)CC1` [Compound 85, ((2S)-1-Benzylpyrrolidin-2-yl)-[4-(4-fluorobenzylidene)piperidin-1-yl] methanone hydrochloride] was run?
Answer: Its EC50 is under 100 nM.

Question: Which EC50 does the source give for `O=C([C@@H]1CCCN1Cc1ccccc1)N1CCN(c2ccc(F)cc2)CC1` [Compound 86, ((2S)-1-Benzylpyrrolidin-2-yl)-[4-(4-fluorophenyl)piperazin-1-yl] methanone hydrochloride] here?
Answer: The EC50 was under 100 nM.

Question: Which EC50 does the source give for `O=C([C@@H]1CCCN1Cc1ccccc1)N1CCN(Cc2ccc(F)cc2)CC1` [Compound 87, ((2S)-1-Benzyl-pyrrolidin-2-yl)-[4-(4-fluoro-benzyl)-piperazin-1-yl] methanone] here?
Answer: Its EC50 is over 500 nM.

Question: How did the EC50 turn out when `O=C(C1CC2CCN1CC2)N1CCC(Cc2ccc(F)cc2)CC1` (stereo not drawn) [Compound 88, (1-Aza-bicyclo[2.2.2]oct-2-yl)-[4-(4-fluoro-benzyl)-piperidin-1-yl] methanone hydrochloride] was run?
Answer: The EC50 was 100 to 500 nM.

Question: `CN1CCC=C(C(=O)N2CCC(Cc3ccc(F)cc3)CC2)C1` [Compound 89, [4-(4-Fluorobenzyl)piperidin-1-yl]-(1-methyl-1,2,5,6-tetrahydropyridin-3-yl) methanone hydrochloride] was tested. Which EC50 did it give?
Answer: Its EC50 is 100 to 500 nM.

Question: With `CN1CCCC(C(=O)N2CCC(Cc3ccc(F)cc3)CC2)C1` (stereo not drawn) [Compound 90, [4-(4-Fluorobenzyl)piperidin-1-yl]-(1-methylpiperidin-3-yl) methanone hydrochloride] as the compound, how does the EC50 read?
Answer: Its EC50 is under 100 nM.

Question: How did the EC50 turn out when `CCN1CCCC[C@H]1CN1CCN(C(c2ccccc2)c2ccccc2)CC1` [Compound 100, 1-Benzhydryl-4-((2S)-1-ethylpiperidin-2-ylmethyl)-piperazine] was run?
Answer: The EC50 was under 100 nM.

Question: For `CCN1CCCC[C@H]1CN1CCC(Cc2ccccc2)CC1` [Compound 101, 4-Benzyl-1-((2S)-1-ethylpiperidin-2-ylmethyl)-piperidine], which EC50 is on record?
Answer: Its EC50 is under 100 nM.

Question: How did the EC50 turn out when `Fc1ccc(CC2CCN(C[C@@H]3CCCN3Cc3ccccc3)CC2)cc1` [Compound 103, 1-((2S)-1-Benzylpyrrolidin-2-ylmethyl)-4-(4-fluorobenzyl)piperidine dihydrochloride] was run?
Answer: Its EC50 is under 100 nM.

Question: `CO[C@@H]1C[C@@H](C(=O)N2CCC(Cc3ccccc3)CC2)N(Cc2ccccc2)C1` [Compound 153, ((2S,4R)-1-Benzyl-4-methoxypyrrolidin-2-yl)-(4-benzylpiperdin-1-yl)-methanone] was tested. Which EC50 did it give?
Answer: The EC50 was over 500 nM.

Question: `COC(=O)CO[C@@H]1C[C@@H](C(=O)N2CCC(Cc3ccccc3)CC2)N(Cc2ccccc2)C1` [Compound 155, [(2S, 4R)-1-Benzyl-5-(4-benzylpiperidine-1-carbonyl)-pyrrolidin-3-yloxyl]-acetic acid methyl ester] was tested. Which EC50 did it give?
Answer: Its EC50 is over 500 nM.

Question: With `CN1CCC(C(=O)N2CCC(Cc3ccccc3)CC2)CC1` [Compound 202] as the compound, how does the EC50 read?
Answer: The EC50 was 100 to 500 nM.

Question: `CN1CCCC(C(=O)N2CCC(Cc3ccccc3)CC2)C1` (stereo not drawn) [Compound 204] was tested. Which EC50 did it give?
Answer: Its EC50 is 100 to 500 nM.

Question: `CN1CCC(C(=O)N2CCN(C(c3ccc(F)cc3)c3ccc(F)cc3)CC2)CC1` [Compound 218] was tested. Which EC50 did it give?
Answer: Its EC50 is 100 to 500 nM.

Question: With `CN1CCCC(C(=O)N2CCN(C(c3ccc(F)cc3)c3ccc(F)cc3)CC2)C1` (stereo not drawn) [Compound 220] as the compound, how does the EC50 read?
Answer: Its EC50 is over 500 nM.

Question: How did the EC50 turn out when `CCN1CCC(C(=O)N2CCN(c3ccc(F)cc3)CC2)CC1` [Compound 226] was run?
Answer: The EC50 was 100 to 500 nM.

Question: How did the EC50 turn out when `O=C(C1CCN(C/C=C/c2ccccc2)CC1)N1CCC(Cc2ccc(F)cc2)CC1` [Compound 255] was run?
Answer: The EC50 was under 100 nM.

Question: For `O=C(C1CCN(Cc2ccccc2)CC1)N1CCN(c2ccc(F)cc2)CC1` [Compound 256], which EC50 is on record?
Answer: Its EC50 is 100 to 500 nM.

Question: Which EC50 does the source give for `O=C(C1CCN(Cc2ccc(F)cc2)CC1)N1CCC(Cc2ccc(F)cc2)CC1` [Compound 257] here?
Answer: The EC50 was 100 to 500 nM.

Question: For `C=CCN1CCC(C(=O)N2CCN(c3ccc(F)cc3)CC2)CC1` [Compound 258], which EC50 is on record?
Answer: The EC50 was 100 to 500 nM.

Question: With `CC(C)=CCN1CCC(C(=O)N2CCN(c3ccc(F)cc3)CC2)CC1` [Compound 260] as the compound, how does the EC50 read?
Answer: Its EC50 is under 100 nM.

Question: How did the EC50 turn out when `O=C(C1CCN(CC2CC2)CC1)N1CCN(c2ccc(F)cc2)CC1` [Compound 262] was run?
Answer: The EC50 was under 100 nM.

Question: For `CC(C)CN1CCC(C(=O)N2CCN(c3ccc(F)cc3)CC2)CC1` [Compound 264], which EC50 is on record?
Answer: The EC50 was 100 to 500 nM.

Question: For `O=C(C1CCN(C/C=C/c2ccccc2)CC1)N1CCN(c2ccc(F)cc2)CC1` [Compound 266], which EC50 is on record?
Answer: The EC50 was 100 to 500 nM.

Question: `CCN1CCC(C(=O)N2CCC(Cc3ccc(F)cc3)CC2)CC1` [Compound 270] was tested. Which EC50 did it give?
Answer: Its EC50 is 100 to 500 nM.

Question: With `C=CCN1CCC(C(=O)N2CCC(Cc3ccc(F)cc3)CC2)CC1` [Compound 274] as the compound, how does the EC50 read?
Answer: Its EC50 is over 500 nM.

Question: With `CC(C)=CCN1CCC(C(=O)N2CCC(Cc3ccc(F)cc3)CC2)CC1` [Compound 276] as the compound, how does the EC50 read?
Answer: The EC50 was under 100 nM.

From patent EP1257544B1, “PIPERAZINE AND PIPERIDINE DERIVATIVES FOR TREATMENT OR PREVENTION OF NEURONAL DAMAGE” (VERTEX PHARMACEUTICALS INCORPORATED, priority 2000, dated 2001)
